Assay results: patent US10988459B2 (priority 2015, dated 2021)

target: human RIP1 kinase domain (2-375) (Homo sapiens (Human), UniProt Q13546); assay: biochemical; assay type: biochemical; settings: Table 1; apparent Ki (Morrison tight-binding fit); 50 nM RIP1 kinase domain, 50 uM ATP, 2 hours incubation; read-out: RIP1 Ki
Procedure, shortened: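 50 nM purified kinase domain from baculovirus-infected insect cells, incubated 2 h with compound in 50 mM Hepes pH 7.5, 30 mM MgCl2, 1 mM DTT, 50 uM ATP, 0.002% Brij-35, 0.5% DMSO. ADP formation read by Transcreener FP at 633 nm excitation. Ki^app fitted with the Morrison tight-binding equation.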

Chain of human RIP1 kinase domain (2-375) (Q13546 2-375): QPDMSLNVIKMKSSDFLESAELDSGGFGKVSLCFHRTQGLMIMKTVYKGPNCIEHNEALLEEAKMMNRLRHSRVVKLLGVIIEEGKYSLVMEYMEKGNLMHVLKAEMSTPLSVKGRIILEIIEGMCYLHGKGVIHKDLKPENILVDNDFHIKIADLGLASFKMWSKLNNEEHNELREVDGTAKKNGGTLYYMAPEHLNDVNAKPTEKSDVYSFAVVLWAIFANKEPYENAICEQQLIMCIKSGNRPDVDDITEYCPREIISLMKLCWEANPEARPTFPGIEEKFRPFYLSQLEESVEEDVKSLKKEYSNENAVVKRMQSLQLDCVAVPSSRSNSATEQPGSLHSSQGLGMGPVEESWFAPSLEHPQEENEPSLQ

| SMILES | Ki [nM] |
| --- | --- |
| CN1C(=O)[C@@H](NC(=O)c2n[nH]c3ccc(Cl)cc23)COc2ccccc21 [Example 78, (S)-5-chloro-N-(5-methyl-4-oxo-2,3,4,5-tetrahydrobenzo[b][1,4]oxazepin-3-yl)-1H-indazole-3-carboxamide] | 21 |

same assay, conditions: Table 3; apparent Ki (Morrison tight-binding fit); 50 nM RIP1 kinase domain, 50 uM ATP, 2 hours incubation; read-out: Ki

| SMILES | Ki [nM] |
| --- | --- |
| Cc1cc2n(n1)CCC(NC(=O)c1ncn(Cc3ccccc3)n1)C(=O)N2C (centres unmarked) [Example 333, 1-benzyl-N-(2,4-dimethyl-5-oxo-5,6,7,8-tetrahydro-4H-pyrazolo[1,5-a][1,3]diazepin-6-yl)-1H-1,2,4-triazole-3-carboxamide] | 68 |

same assay, conditions: Table 5; apparent Ki (Morrison tight-binding fit); 50 nM RIP1 kinase domain, 50 uM ATP, 2 hours incubation; read-out: Ki

| Ki [nM] | SMILES |
| --- | --- |
| 37 | CN1C(=O)[C@@H](NC(=O)c2ncn(Cc3ccccc3)n2)CCn2nc(CC3CCOCC3)cc21 [Example 774, 1-benzyl-N-[(6S)-4methyl-5-oxo-2-(tetrahydropyran-4-ylmethyl)-7,8-dihydro-6H-pyrazolo[1,5-a][1,3]diazepin-6-yl]-1,2,4-triazole-3-carboxamide] |
| 17 | CN1C(=O)[C@@H](NC(=O)c2ncc3c(n2)[C@@](C)(C(F)(F)F)OC3)COc2ccccc21 [Example 743, (7S)-7-methyl-N-[(3S)-5-methyl-4-oxo-2,3-dihydro-1,5-benzoxazepin-3-yl]-7-(trifluoromethyl)-5H-furo[3,4-d]pyrimidine-2-carboxamide] |
| 70 | CN1C(=O)[C@@H](NC(=O)c2cn3c(C(F)(F)F)cccc3n2)COc2ccccc21 (single isomer, unassigned) [Example 792] |
| 14 | C[C@@]1(C(F)(F)F)OCc2cnc(C(=O)N[C@H]3CCc4cc(F)cc(F)c4NC3=O)cc21 [Example 748, (1R)-1-methyl-N-[(3S)-7,9-difluoro-2-oxo-1,3,4,5-tetrahydro-1-benzazepin-3-yl]-1-(trifluoromethyl)-3H-furo[3,4-c]pyridine-6-carboxamide] |
| 207 | CC(C)[C@H]1CCCc2nc(C(=O)N[C@H]3COc4cc(F)cc(F)c4NC3=O)nn21 (single isomer, unassigned) [Example 717] |

same assay, conditions: human RIP1 kinase domain (2-375), 50 uM ATP, 2 hours incubation, Transcreener ADP assay; read-out: RIP1 Ki

| Ki [nM] | SMILES |
| --- | --- |
| 215 | CN1C(=O)C(NC(=O)c2nnc(Cc3cccc(F)c3F)[nH]2)CCCn2nccc21 (centres unmarked) [Example 97, 5-(2,3-difluorobenzyl)-N-(4-methyl-5-oxo-4,5,6,7,8,9-hexahydropyrazolo[1,5-a][1,3]diazocin-6-yl)-4H-1,2,4-triazole-3-carboxamide] |
| 1600 | CN1C(=O)[C@@H](NC(=O)c2cn(Cc3ccc(F)c(F)c3)cn2)COc2c1cnn2C [Example 183, (S)-1-(3,4-difluorobenzyl)-N-(1,4-dimethyl-5-oxo-4,5,6,7-tetrahydro-1H-pyrazolo[3,4-b][1,4]oxazepin-6-yl)-1H-imidazole-4-carboxamide] |
| 254 | CC(C)n1ncc2c1OC[C@H](NC(=O)c1nnc(Cc3ccccc3)[nH]1)C(=O)N2C [Example 179, (S)-5-benzyl-N-(1-isopropyl-4-methyl-5-oxo-4,5,6,7-tetrahydro-1H-pyrazolo[3,4-b][1,4]oxazepin-6-yl)-4H-1,2,4-triazole-3-carboxamide] |
| 29.2 | CC(C)c1ccc2[nH]nc(C(=O)N[C@H]3COc4ccccc4N(C)C3=O)c2n1 [Example 139, 5-isopropyl-N-[(3S)-5-methyl-4-oxo-2,3-dihydro-1,5-benzoxazepin-3-yl]-1H-pyrazolo[4,3-b]pyridine-3-carboxamide] |
| 127 | CN1C(=O)C(NC(=O)c2nnc(Cc3ccccc3)[nH]2)CCn2nc3c(c21)CCCC3 (centres unmarked) [Example 133, 5-benzyl-N-(1-methyl-2-oxo-2,3,4,5,8,9,10,11-octahydro-1H-[1,3]diazepino[1,2-b]indazol-3-yl)-4H-1,2,4-triazole-3-carboxamide] |

same assay, conditions: human RIP1 kinase domain (2-375), Transcreener ADP assay, 50 uM ATP, 2 hours incubation; read-out: RIP1 Ki

| Ki [nM] | SMILES |
| --- | --- |
| 171 | Cc1cc2n(n1)CCC(NC(=O)c1ncn(CC3CCCCC3)n1)C(=O)N2C (centres unmarked) [Example 253, 1-(cyclohexylmethyl)-N-(2,4-dimethyl-5-oxo-5,6,7,8-tetrahydro-4H-pyrazolo[1,5-a][1,3]diazepin-6-yl)-1H-1,2,4-triazole-3-carboxamide] |
| 82.9 | CN1C(=O)C(NC(=O)c2ncn(Cc3ccc(F)cc3)n2)CCn2nc(C3CC3)cc21 (centres unmarked) [Example 257, N-(2-cyclopropyl-4-methyl-5-oxo-5,6,7,8-tetrahydro-4H-pyrazolo[1,5-a][1,3]diazepin-6-yl)-1-(4-fluorobenzyl)-1H-1,2,4-triazole-3-carboxamide] |
| 18.5 | CN1C(=O)[C@@H](NC(=O)c2ncn(Cc3cc(F)cc(F)c3)n2)CCn2nc(C3CC3)cc21 [Example 303, (S)—N-(2-cyclopropyl-4-methyl-5-oxo-5,6,7,8-tetrahydro-4H-pyrazolo[1,5-a][1,3]diazepin-6-yl)-1-(3,5-difluorobenzyl)-1H-1,2,4-triazole-3-carboxamide] |

same assay, conditions: tight-binding apparent inhibition constant; human RIP1 kinase domain (2-375) 50 nM, 50 uM ATP, 2 hours; read-out: Ki

| SMILES | Ki [nM] |
| --- | --- |
| CC(C)c1cc2n(n1)CC[C@H](NC(=O)c1ncn(Cc3ccccc3)n1)C(=O)N2C [Example 458, (S)-1-Benzyl-N-(2-isopropyl-4-methyl-5-oxo-5,6,7,8-tetrahydro-4H-pyrazolo[1,5-a][1,3]diazepin-6-yl)-1H-1,2,4-triazole-3-carboxamide] | 10 |
| Cc1cc(F)c2c(c1)OC[C@H](NC(=O)c1nc3n(n1)C(C(C)C)CC3)C(=O)N2 (stereo partly drawn) [Example 345, N-[(3S)-6-fluoro-8-methyl-4-oxo-3,5-dihydro-2H-1,5-benzoxazepin-3-yl]-5-isopropyl-6,7-di hydro-5H-pyrrolo[1,2-b][1,2,4]triazole-2-carboxamide] | 20 |
| Cc1nn2c(c1C)N(C)C(=O)[C@@H](NC(=O)c1nnc(Cc3cccc(F)c3F)[nH]1)CC2 [Example 490, 5-[(2,3-difluorophenyl)methyl]-N-(6S)-2,3,4-trimethyl-5-oxo-7,8-dihydro-6H-pyrazolo[1,5-a][1,3]diazepin-6-yl-4H-1,2,4-triazole-3-carboxamide] | 40 |
| Cc1cc2n(n1)CC[C@H](NC(=O)c1nc3n(n1)CCOC31CCCC1)C(=O)N2C [Example 567, N-[(6S)-2,4-dimethyl-5-oxo-7,8-dihydro-6H-pyrazolo[1,5-a][1,3]diazepin-6-yl]spiro[5,6-dihydro-[1,2,4]triazolo[5,1-c][1,4]oxazine-8,1′-cyclopentane]-2-carboxamide] | 410 |
| CN1C(=O)[C@@H](NC(=O)c2ncn(C[C@H]3C[C@H](C)C3)n2)CCn2nccc21 [Example 497, N—((S)-4-methyl-5-oxo-5,6,7,8-tetrahydro-4H-pyrazolo[1,5-a][1,3]diazepin-6-yl)-1-(((1R,3S)-3-methylcyclobutyl)methyl)-1H-1,2,4-triazole-3-carboxamide] | 41 |

The next lines start with the values.

| Ki [nM] | SMILES |
| --- | --- |
| 3100 | Cc1cc2n(n1)CC[C@H](NC(=O)c1ncc3cnn(-c4ccccn4)c3n1)C(=O)N2C [Example 632, 1-(2-pyridyl)-N-[(6S)-2,4-dimethyl-5-oxo-7,8-dihydro-6H-pyrazolo[1,5-a][1,3]diazepin-6-yl]pyrazolo[3,4-d]pyrimidine-6-carboxamide] |
| 251 | CC[C@@]1(C)OCc2cnc(C(=O)N[C@H]3CCn4nc(C)cc4N(C)C3=O)nc21 (racemic) [Example 687, rac-(7R)-7-ethyl-7-methyl-N-[rac-(6S)-2,4-dimethyl-5-oxo-7,8-dihydro-6H-pyrazolo[1,5-a][1,3]diazepin-6-yl]-5H-furo[3,4-d]pyrimidine-2-carboxamide] |
| 420 | Cc1ncccc1Cn1cnc(C(=O)N[C@H]2CCn3nccc3N(C)C2=O)n1 [Example 663, 1-[(2-methyl-3-pyridyl)methyl]-N-(6S)-4-methyl-5-oxo-7,8-dihydro-6H-pyrazolo[1,5-a][1,3]diazepin-6-yl-1,2,4-triazole-3-carboxamide] |
